How the values were obtained:
human HIF-PHD3 = biological target: T1, human HIF-PHD3 (Homo sapiens, UniProt Q9H6Z9); experiment: HIF-PHD inhibition assay (fluorescence polarization), human HIF-PHD3; format: biochemical; details: 2-oxoglutaric acid 166 μmol/L
T1 construct: purchased CrystalGenomics Ltd
How it was run: (§1)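 Measured signal: mP difference, after versus before enzyme addition, representing enzyme activity. Detection relied on a FAM-tagged, ACA-spaced fluorescent probe.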

human HIF-PHD2 = biological target: T2, human HIF-PHD2 (Homo sapiens, UniProt Q9GZT9); experiment: HIF-PHD inhibition assay (fluorescence polarization), human HIF-PHD2; format: biochemical; details: 2-oxoglutaric acid 3.33 μmol/L
T2 construct: purchased CrystalGenomics Ltd
T2 sequence (Q9GZT9 2-426 limits assumed): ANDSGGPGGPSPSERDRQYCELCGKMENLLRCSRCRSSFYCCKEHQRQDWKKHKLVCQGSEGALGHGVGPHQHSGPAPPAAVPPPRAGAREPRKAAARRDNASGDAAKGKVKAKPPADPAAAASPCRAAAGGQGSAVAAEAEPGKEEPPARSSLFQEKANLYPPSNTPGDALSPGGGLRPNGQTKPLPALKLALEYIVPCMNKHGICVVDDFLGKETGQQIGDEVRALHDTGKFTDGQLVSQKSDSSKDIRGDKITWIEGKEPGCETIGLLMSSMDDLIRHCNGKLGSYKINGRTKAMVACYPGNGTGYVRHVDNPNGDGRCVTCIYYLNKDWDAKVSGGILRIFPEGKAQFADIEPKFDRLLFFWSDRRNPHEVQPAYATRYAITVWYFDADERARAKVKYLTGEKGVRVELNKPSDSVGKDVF
How it was run: as §1

T1 sequence (Q9H6Z9 whole entry): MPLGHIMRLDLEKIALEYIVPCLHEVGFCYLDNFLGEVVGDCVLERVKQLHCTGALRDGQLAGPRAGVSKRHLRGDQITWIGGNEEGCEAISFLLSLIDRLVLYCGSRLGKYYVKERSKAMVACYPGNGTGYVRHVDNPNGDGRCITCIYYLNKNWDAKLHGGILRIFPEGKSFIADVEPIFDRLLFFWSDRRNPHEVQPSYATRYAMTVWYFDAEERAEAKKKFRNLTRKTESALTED

IC50 (human HIF-PHD3) [nM] | IC50 (human HIF-PHD2) [nM] | SMILES
500 | 60 | C[C@H]1CC[C@H](n2ncc3nc(-n4cc(C(=O)O)cn4)nc(O)c32)CC1 [Example 384]
380 | 130 | C[C@H]1CC[C@@H](n2ncc3nc(-n4cc(C(=O)O)cn4)nc(O)c32)CC1 [Example 385]
840 | 38 | CC1(C)CCC(n2ncc3nc(-n4cc(C(=O)O)cn4)nc(O)c32)CC1 [Example 386]
510 | 47 | CC[C@H]1CC[C@H](n2ncc3nc(-n4cc(C(=O)O)cn4)nc(O)c32)CC1 [Example 388]
790 | 76 | CC(C)[C@H]1CC[C@H](n2ncc3nc(-n4cc(C(=O)O)cn4)nc(O)c32)CC1 [Example 389]
660 | 28 | CC(C)[C@H]1CC[C@@H](n2ncc3nc(-n4cc(C(=O)O)cn4)nc(O)c32)CC1 [Example 390]
1100 | 72 | CC(C)(C)[C@H]1CC[C@@H](n2ncc3nc(-n4cc(C(=O)O)cn4)nc(O)c32)CC1 [Example 391]
1300 | 42 | O=C(O)c1cnn(-c2nc(O)c3c(cnn3C3CCC(F)(F)CC3)n2)c1 [Example 392]
310 | 41 | O=C(O)c1cnn(-c2nc(O)c3c(cnn3C3CCCCCC3)n2)c1 [Example 393]
420 | 33 | O=C(O)c1cnn(-c2nc(O)c3c(cnn3C3CCCCCCC3)n2)c1 [Example 394]
1400 | 52 | CC1CCCC(n2ncc3nc(-n4cc(C(=O)O)cn4)nc(O)c32)C1 (centres unmarked) [Example 398]
600 | 23 | CC1CCCC(n2ncc3nc(-n4cc(C(=O)O)cn4)nc(O)c32)C1 (centres unmarked) [Example 400]
710 | 24 | C[C@@H]1C[C@H](C)C[C@@H](n2ncc3nc(-n4cc(C(=O)O)cn4)nc(O)c32)C1 [Example 402]
420 | 49 | CC1CC(n2ncc3nc(-n4cc(C(=O)O)cn4)nc(O)c32)CC(C)(C)C1 (centres unmarked) [Example 409]
550 | 40 | CC1(C)CCCC(n2ncc3nc(-n4cc(C(=O)O)cn4)nc(O)c32)C1 (centres unmarked) [Example 411]
680 | 42 | CCC1CCCC(n2ncc3nc(-n4cc(C(=O)O)cn4)nc(O)c32)C1 (centres unmarked) [Example 413]
690 | 40 | CCC1CCCC(n2ncc3nc(-n4cc(C(=O)O)cn4)nc(O)c32)C1 (centres unmarked) [Example 415]
1300 | 70 | CC1(C)CCCC1n1ncc2nc(-n3cc(C(=O)O)cn3)nc(O)c21 (centres unmarked) [Example 417]

The remaining lines, values behind:

SMILES | IC50 (human HIF-PHD3) [nM] | IC50 (human HIF-PHD2) [nM]
CCC(c1ccc(F)c(Cl)c1)n1ncc2nc(-n3cc(C(=O)O)cn3)nc(O)c21 (centres unmarked) [Example 337] | 420 | 32
CCC(c1cc(F)cc(Cl)c1)n1ncc2nc(-n3cc(C(=O)O)cn3)nc(O)c21 (centres unmarked) [Example 339] | 370 | 36
CCC(c1cccc(C(F)(F)F)c1)n1ncc2nc(-n3cc(C(=O)O)cn3)nc(O)c21 (centres unmarked) [Example 341] | 790 | 52
CC[C@@H](c1cccc(Cl)c1)n1ncc2nc(-n3cc(C(=O)O)cn3)nc(O)c21 [Example 343] | 610 | 92
CC[C@@H](c1ccc(F)c(C)c1)n1ncc2nc(-n3cc(C(=O)O)cn3)nc(O)c21 [Example 344] | 530 | 25
CC[C@@H](c1ccc(C)c(F)c1)n1ncc2nc(-n3cc(C(=O)O)cn3)nc(O)c21 [Example 345] | 830 | 53
CCC(c1ccc(Cl)c(C)c1)n1ncc2nc(-n3cc(C(=O)O)cn3)nc(O)c21 (centres unmarked) [Example 346] | 530 | 65
CCC(c1ccc(Cl)cc1F)n1ncc2nc(-n3cc(C(=O)O)cn3)nc(O)c21 (centres unmarked) [Example 350] | 530 | 49
CC[C@@H](c1ccc(OC(F)(F)F)c(F)c1)n1ncc2nc(-n3cc(C(=O)O)cn3)nc(O)c21 [Example 352] | 420 | 32
CC[C@@H](c1ccc(OC(F)(F)F)c(Cl)c1)n1ncc2nc(-n3cc(C(=O)O)cn3)nc(O)c21 [Example 353] | 490 | 14
CC(C)C(c1ccc(F)cc1)n1ncc2nc(-n3cc(C(=O)O)cn3)nc(O)c21 (centres unmarked) [Example 354] | 680 | 140
CC(C)C(c1ccc(C(F)(F)F)cc1)n1ncc2nc(-n3cc(C(=O)O)cn3)nc(O)c21 (centres unmarked) [Example 356] | 710 | 53
CC(C)C(c1ccc(F)c(F)c1)n1ncc2nc(-n3cc(C(=O)O)cn3)nc(O)c21 (centres unmarked) [Example 358] | 700 | 45
CC(C)C(c1cc(F)cc(F)c1)n1ncc2nc(-n3cc(C(=O)O)cn3)nc(O)c21 (centres unmarked) [Example 360] | 770 | 64
CC(C)C(c1cccc(C(F)(F)F)c1)n1ncc2nc(-n3cc(C(=O)O)cn3)nc(O)c21 (centres unmarked) [Example 362] | 1500 | 100
O=C(O)c1cnn(-c2nc(O)c3c(cnn3C(c3ccc(Cl)cc3)C3CC3)n2)c1 (centres unmarked) [Example 364] | 780 | 39
O=C(O)c1cnn(-c2nc(O)c3c(cnn3C(c3ccc(F)cc3)C3CC3)n2)c1 (centres unmarked) [Example 366] | 540 | 120
Cc1ccc(C(C2CC2)n2ncc3nc(-n4cc(C(=O)O)cn4)nc(O)c32)cc1 (centres unmarked) [Example 368] | 410 | 72
O=C(O)c1cnn(-c2nc(O)c3c(cnn3C(c3ccc(F)c(Cl)c3)C3CC3)n2)c1 (centres unmarked) [Example 370] | 380 | 56

SMILES | IC50 (human HIF-PHD3) [nM] | IC50 (human HIF-PHD2) [nM]
O=C(O)c1cnn(-c2nc(O)c3c(cnn3C(c3cc(F)cc(F)c3)C3CC3)n2)c1 (centres unmarked) [Example 372] | 720 | 45
O=C(O)c1cnn(-c2nc(O)c3c(cnn3C(c3cccc(Cl)c3)C3CC3)n2)c1 (centres unmarked) [Example 374] | 630 | 51
Cc1cc(C(C2CC2)n2ncc3nc(-n4cc(C(=O)O)cn4)nc(O)c32)ccc1F (centres unmarked) [Example 376] | 770 | 72
C[C@@H](C1CCC(C)(C)CC1)n1ncc2nc(-n3cc(C(=O)O)cn3)nc(O)c21 [Example 382] | 410 | 15
C[C@H](C1CCC(C)(C)CC1)n1ncc2nc(-n3cc(C(=O)O)cn3)nc(O)c21 [Example 383] | 570 | 110
CC1(C)CC(n2ncc3nc(-n4cc(C(=O)O)cn4)nc(O)c32)CC(C)(C)C1 [Example 387] | 780 | 30
O=C(O)c1cnn(-c2nc(O)c3c(cnn3C3Cc4ccccc4C3)n2)c1 [Example 395] | 430 | 64
O=C(O)c1cnn(-c2nc(O)c3c(cnn3[C@@H]3CCc4ccccc43)n2)c1 [Example 396] | 340 | 47
O=C(O)c1cnn(-c2nc(O)c3c(cnn3[C@H]3CCc4ccccc43)n2)c1 [Example 397] | 720 | 46
CC(C)[C@@H]1CC[C@@H](C)C[C@@H]1n1ncc2nc(-n3cc(C(=O)O)cn3)nc(O)c21 [Example 403] | 940 | 140
CC(C)[C@H]1CC[C@H](C)C[C@H]1n1ncc2nc(-n3cc(C(=O)O)cn3)nc(O)c21 [Example 404] | 840 | 81
CC(C)[C@H]1CC[C@H](C)[C@H](n2ncc3nc(-n4cc(C(=O)O)cn4)nc(O)c32)C1 [Example 405] | 460 | 110
CC(C)[C@@H]1CC[C@@H](C)[C@@H](n2ncc3nc(-n4cc(C(=O)O)cn4)nc(O)c32)C1 [Example 406] | 680 | 170
CC1CC(n2ncc3nc(-n4cc(C(=O)O)cn4)nc(O)c32)CC(C)(C)C1 (centres unmarked) [Example 407] | 460 | 37
CC1(C)CC(=O)N(c2ccc(Cn3ncc4nc(-n5cc(C(=O)O)cn5)nc(O)c43)cc2)C1 [Example 420] | 490 | 62
O=C(O)c1cnn(-c2nc(O)c3c(cnn3Cc3ccc(N4CCC(C(F)(F)F)CC4)cc3)n2)c1 [Example 422] | 420 | 38
O=C(O)c1cnn(-c2nc(O)c3c(cnn3C[C@@H]3CCN(c4ccc(C(F)(F)F)cc4)C3)n2)c1 [Example 426] | 140 | 15
O=C(O)c1cnn(-c2nc(O)c3c(cnn3C[C@H]3CCN(c4ccc(C(F)(F)F)cc4)C3)n2)c1 [Example 427] | 310 | 25

From patent publication US20150239889A1, “PYRAZOLOPYRIMIDINE COMPOUND” (MITSUBISHI TANABE PHARMA CORPORATION, priority 2012, published 2015)
